Measurements published in BindingDB's records for doi:10.1021/bi3002067 (The University of Auckland, 2012).

Target: Salicylate synthase (Mycobacterium tuberculosis (strain CDC 1551 / Oshkosh), UniProt P9WFX0)
Assay: Fluorescence-Based Thermal Shift Assay
Method: The thermal stability of MbtI in the absence and presence of inhibitors was measured using a fluorescence-based thermal shift assay.

Chain of Salicylate synthase (P9WFX0 whole entry): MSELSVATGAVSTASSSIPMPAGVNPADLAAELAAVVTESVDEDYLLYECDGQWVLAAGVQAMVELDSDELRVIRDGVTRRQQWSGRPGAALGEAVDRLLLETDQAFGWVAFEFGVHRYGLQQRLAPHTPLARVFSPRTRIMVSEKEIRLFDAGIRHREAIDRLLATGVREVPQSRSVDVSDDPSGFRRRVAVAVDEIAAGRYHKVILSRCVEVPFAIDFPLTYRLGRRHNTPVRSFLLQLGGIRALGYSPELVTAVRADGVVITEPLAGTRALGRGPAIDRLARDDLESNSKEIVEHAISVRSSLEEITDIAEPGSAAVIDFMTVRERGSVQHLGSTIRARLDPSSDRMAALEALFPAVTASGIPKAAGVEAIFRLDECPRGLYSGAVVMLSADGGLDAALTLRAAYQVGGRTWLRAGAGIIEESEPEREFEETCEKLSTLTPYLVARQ

Question: For `O=C(O)C(=CC1CC1)Oc1cccc(C(=O)O)c1O` [cyclopropyl-AMT], which Ki is on record?
Answer: 12 µM
